The values below come from US8546381B2, “Bridged heterocyclic compounds and methods of use” (Medivation Technologies, Inc., priority 2008, dated 2013).

A word on the inhibition: it is the drop in the measured response relative to a control, in per cent.

In one test the target is T1, human recombinant serotonin (5-Hydroxytryptamine) 5-HT2C receptor (Homo sapiens, UniProt P28335).
T1 construct: expressed in transfected cells; host or cells: CHO-K1 cells
T1 sequence (P28335 33-458): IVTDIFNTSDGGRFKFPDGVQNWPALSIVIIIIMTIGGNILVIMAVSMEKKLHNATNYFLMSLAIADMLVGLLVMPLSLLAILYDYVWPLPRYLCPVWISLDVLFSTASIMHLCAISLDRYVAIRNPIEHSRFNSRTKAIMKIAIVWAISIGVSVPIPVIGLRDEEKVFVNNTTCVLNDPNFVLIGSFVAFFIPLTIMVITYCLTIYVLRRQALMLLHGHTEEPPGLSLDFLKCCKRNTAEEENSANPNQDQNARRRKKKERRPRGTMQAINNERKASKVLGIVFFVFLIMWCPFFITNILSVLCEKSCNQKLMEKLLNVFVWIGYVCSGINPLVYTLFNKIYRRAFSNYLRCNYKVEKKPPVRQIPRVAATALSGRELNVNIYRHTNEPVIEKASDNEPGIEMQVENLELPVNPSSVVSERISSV
In words: Serotonin 5-HT2C radioligand binding ([3H]Mesulergine). Conditions: 1 µM. As to the method:
To evaluate in radioligand binding assays the activity of compounds of the invention, human recombinant serotonin (5-Hydroxytryptamine) 5-HT2C receptor expressed in Chinese hamster ovary (CHO-K1) cells (Wolf, W. A. and Schutz, J. S., J. Neurochem. 69:1449, 1997) in a modified Tris-HCl buffer (50 mM Tris-HCl, pH 7.4, 0.1% Ascorbic Acid, 10 μM Pargyline) was used. Compounds of the invention were incubated with 1 nM [^3H]Mesulergine for 60 minutes at 25° C. Non-specific binding was estimated in the presence of 1 μM Mianserin. Receptor proteins were filtered and washed, the filters were then counted to determine [^3H]Mesulergine specifically bound. Compounds were screened at 1 μM or lower, using 1% DMSO as vehicle. Biochemical assay results are presented as the percent inhibition of specific binding in Table 4.
As to `CN1C2CCC1c1c(n(CCc3ccc(C(F)(F)F)nc3)c3ccc(Cl)cc13)C2` (stereo not drawn) [Compound 34], the “Serotonin 5-HT2C, inhibition of ligand binding (1 μM)” value is given as 28.0%.

The same test, now with this note: read-out: Serotonin 5-HT2C, inhibition of ligand binding (1 μM).
Consider `COc1ccc(CCn2c3c(c4cc(Cl)ccc42)C2CCC(C3)N2C)cc1` (stereo not drawn) [Compound 84], for which the inhibition at 1 µM is 93%.
For `CN1C2CCC1c1c(n(CCc3ccc(C(F)(F)F)nc3)c3ccc(Cl)cc13)C2` (stereo not drawn) [Compound 34], the inhibition at 1 µM came out at 27%.
Regarding `Cc1ccc2c(c1)c1c(n2CC(O)c2ccc(C)nc2)CC2CCC1N2C` (stereo not drawn) [Compound 91], the inhibition at 1 µM was -4%.
Same read-out and setting: the value for `Cc1ccc(CCn2c3c(c4cc(Cl)ccc42)C2CCC(C3)N2C)cn1` (stereo not drawn) [Compound 79] was 13%; that for `Cc1ccc2c(c1)c1c(n2CC(=O)N2CCCCC2)CC2CCC1N2C` (stereo not drawn) [Compound 93] was 7%; that for `Cc1ccc(CCCn2c3c(c4cc(Cl)ccc42)C2CCC(C3)N2C)cn1` (stereo not drawn) [Compound 38] was 23%.
Same read-out and setting: the value for `Cc1cncc(CCn2c3c(c4cc(Cl)ccc42)C2CCC(C3)N2C)c1` (stereo not drawn) [Compound 89] was 26%.
For `Cc1ccc2c(c1)c1c(n2CCC#N)CC2CCC1N2C` (stereo not drawn) [Compound 103], the inhibition at 1 µM is 33%.
Same read-out and setting: as for `CN1C2CCC1c1c(n(CCC(=O)N3CCS(=O)(=O)CC3)c3ccc(Cl)cc13)C2` (stereo not drawn) [Compound 11], the figure is 13%.
On the same count and under the same terms, as for `Cc1ccc(C(O)Cn2c3c(c4cc(Cl)ccc42)C2CCC(C3)N2C)cn1` (stereo not drawn) [Compound 52], the figure is 11%.
Still for that read-out and setting: the value for `COc1ccc(CCn2c3c(c4cc(C)ccc42)C2CCC(C3)N2C)cc1` (stereo not drawn) [Compound 83] was 82%; that for `Cc1ccc2c(c1)c1c(n2CCCc2ccc(Cl)cc2)CC2CCC1N2C` (stereo not drawn) [Compound 85] was 89%.
For the molecule `CN1C2CCC1c1c(n(CCC(=O)N3CCNC(=O)C3)c3ccc(Cl)cc13)C2` (stereo not drawn) [Compound 3], the inhibition at 1 µM is 2%.
Consider `Cc1ccc2c(c1)c1c(n2CCc2cncc(Cl)c2)CC2CCC1N2C` (stereo not drawn) [Compound 88], for which the inhibition at 1 µM came to 31%.
For the molecule `CN1C2CCC1c1c(n(CCC#N)c3ccc(Cl)cc13)C2` (stereo not drawn) [Compound 107], the inhibition at 1 µM stood at 25%.
Still for that read-out and setting: as for `CN1C2CCC1c1c(n(CCCc3ccc(Cl)cc3)c3ccc(Cl)cc13)C2` (stereo not drawn) [Compound 39], the figure is 94%; as for `CN1C2CCC1c1c(n(CCCc3ccc(C(F)(F)F)nc3)c3ccc(Cl)cc13)C2` (stereo not drawn) [Compound 37], 26%; as for `Cc1ccc2c(c1)c1c(n2CCc2cccnc2)CC2CCC1N2C` (stereo not drawn) [Compound 86], 72%.
As to `CN1C2CCC1c1c(n(CC(=O)c3ccccc3)c3ccc(Cl)cc13)C2` (stereo not drawn) [Compound 110], the inhibition at 1 µM is 62%.
For the molecule `Cc1cncc(CCn2c3c(c4cc(C)ccc42)C2CCC(C3)N2C)c1` (stereo not drawn) [Compound 90], the inhibition at 1 µM is 27%.
On the same count and under the same terms, the value for `Cc1ccc2c(c1)c1c(n2CCc2ccc(C(F)(F)F)nc2)CC2CCC1N2C` (stereo not drawn) [Compound 71] was -0.259%; that for `CN1C2CCC1c1c(n(CCC(=O)N3CCSCC3)c3ccc(Cl)cc13)C2` (stereo not drawn) [Compound 12] was 26%; that for `CN1C2CCC1c1c(n(CCc3cccnc3)c3ccc(Cl)cc13)C2` (stereo not drawn) [Compound 80] was 16%.
Same read-out and setting: as for `C/C(=C/n1c2c(c3ccccc31)[C@@H]1CC[C@H](C2)N1C)c1ccc(F)cc1` [Compound 121], the figure is 88%; as for `Cc1ccc2c(c1)c1c(n2CCc2cnc(C)nc2)CC2CCC1N2C` (stereo not drawn) [Compound 81], 25%; as for `CN1C2CCC1c1c(n(CCC(=O)N3CC[S+]([O-])CC3)c3ccc(Cl)cc13)C2` (stereo not drawn) [Compound 10], 4%.
On the same count and under the same terms, as for `CN1[C@@H]2CC[C@H]1c1c(n(CCc3ccc(F)cc3)c3ccc(F)cc13)C2` [Compound 94, (+)-(7S,10R)-2-Fluoro-5-(4-fluorophenethyl)-11-methyl-5,6,7,8,9,10-hexahydro-7,10-iminocyclohept[b]indole], the figure is 75%.
In the case of `CN1[C@H]2CC[C@@H]1c1c(n(CCc3ccc(F)cc3)c3ccc(F)cc13)C2` [Compound 95, (−)-(7R,10S)-2-Fluoro-5-(4-fluorophenethyl)-11-methyl-5,6,7,8,9,10-hexahydro-7,10-iminocyclohept[b]indole], the inhibition at 1 µM turned out to be 55%.
For the molecule `CN1C2CCC1c1c(n(CCc3ccc(C(F)(F)F)nc3)c3cc(F)c(Cl)cc13)C2` (stereo not drawn) [Compound 77], the inhibition at 1 µM is -8%.
Same read-out and setting: the value for `CN1C2CCC1c1c(n(CCC(=O)O)c3ccc(Cl)cc13)C2` (stereo not drawn) [Compound 72] was -4%.
On the same count and under the same terms, as for `Cc1ccc2c(c1)c1c(n2CC(C)(O)c2ccc(Cl)cc2)CC2CCC1N2C` (stereo not drawn) [Compound 54], the figure is 93%; as for `Cc1ncc(CCn2c3c(c4cc(Cl)ccc42)C2CCC(C3)N2C)cn1` (stereo not drawn) [Compound 82], 60%; as for `CN1[C@@H]2CC[C@H]1c1c(n(CC(=O)N3CCCCC3)c3ccccc13)C2` [Compound 101], 94%.
For the molecule `CN1C2CCC1c1c(n(CCC(=O)N3CCNCC3)c3ccc(Cl)cc13)C2` (stereo not drawn) [Compound 9], the inhibition at 1 µM is 5%.
Same read-out and setting: as for `CN1[C@@H]2CC[C@H]1c1c(n(CC(C)(O)c3ccc(F)cc3)c3ccccc13)C2` (stereo partly drawn) [Compound 99], the figure is 75%.
Same read-out and setting: as for `CCOC(=O)CCn1c2c(c3cc(Cl)ccc31)C1CCC(C2)N1C` (stereo not drawn) [Compound 70, ethyl 3-(2-chloro-11-methyl-5,6,7,8,9,10-hexahydro-7,10-iminocyclohept[b]indol-5-yl)propanoate], the figure is 4%; as for `Cc1ccc2c(c1)c1c(n2CCc2ccc(C)nc2)CC2CCC1N2C` (stereo not drawn) [Compound 32], -3%.
Take `CN1C2CCC1c1c(n(CCc3cncc(Cl)c3)c3ccc(Cl)cc13)C2` (stereo not drawn) [Compound 87]: the inhibition at 1 µM was determined as 30%.
Still for that read-out and setting: the value for `CN1C2CCC1c1c(n(CCC(N)=O)c3ccc(Cl)cc13)C2` (stereo not drawn) [Compound 73] was 5%; that for `Cc1ccc(CCn2c3c(c4ccccc42)C2CCC(C3)N2C)cn1` (stereo not drawn) [Compound 92] was 9%.
The same measure, in the same setting: the value for `Cc1ccc(CCn2c3c(c4ccccc42)[C@@H]2CC[C@H](C3)N2C)cn1` [Compound 102] was -6%; that for `CC(=O)N1CCN(C(=O)CCn2c3c(c4cc(Cl)ccc42)C2CCC(C3)N2C)CC1` (stereo not drawn) [Compound 8] was -6%.
On to `Cc1ccc2c(c1)c1c(n2CCc2nc(-c3ccccc3)cs2)CC2CCC1N2C` (stereo not drawn) [Compound 114], for which the inhibition at 1 µM turned out to be 59%.
Regarding `CN1[C@@H]2CC[C@H]1c1c(n(CCc3ccc(C(F)(F)F)nc3)c3ccccc13)C2` [Compound 97], the inhibition at 1 µM turned out to be 97%.
